Experimental findings from ChEMBL document CHEMBL1201862, “PubChem BioAssay data set” (2004) are described below.

Among the test systems are SNB-75; UO-31; HOP-62; NCI-H460; OVCAR-8; TK-10; Malme-3M; HCT-15; K562; MOLT-4; IGROV-1; SF-268; CAKI-1; PC-3; T47D; NCI-H522; U-251; RPMI-8226; SK-MEL-5; LOX IMVI; SR; MDA-N; EKVX; MDA-MB-231; OVCAR-4; SW-620; UACC-62; ACHN; SK-MEL-28; SK-OV-3; NCI/ADR-RES; SNB-19; HCT-116; CCRF-CEM; HCC 2998; HL-60; OVCAR-3; UACC-257; A549; HT-29; M14; MCF7; COLO 205; SF-295; OVCAR-5; MDA-MB-435; DU-145; HOP-92.

Test in all cases: NCI anticancer screen, dose series, 48 h

Values joined by “and” are separate entries in the source; they are usually repeats but may differ in a detail not shown here. Equal entries are not always repeated.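 Method: 48-hour compound exposure of cells in 96-well plates, five concentrations, linear interpolation of endpoints. At the GI50, growth is halved.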 Active and inactive are the calls of the source. No stated cut-off is given here; in the data, active = GI50 up to about 1.1 µM and inactive = higher. A value given as a limit tells only on which side of the number the result lay.

Consider `COC12C=CC(CC1)C(C)(C)C2O` (stereo unspecified), for which the GI50 in the test with SNB-75 is 87.5 µM (inactive) and 52.7 µM (inactive).
In the case of `Nc1ccc(OCC(O)N2C(=O)c3ccccc3C2=O)cc1` (stereo unspecified), the GI50 in the test on UO-31, with HOP-62, in the test with NCI-H460, in the test with OVCAR-8, with TK-10 and with Malme-3M was > 100 µM (inactive) throughout. The GI50 in the test on HCT-15 is greater than 100 µM; in the test on K562, > 100 µM (inactive); in the test on MOLT-4 it was > 100 µM (inactive); with IGROV-1, > 100 µM (inactive); in the test on SF-268, > 100 µM (inactive); in the test on CAKI-1 it was < 0.01 µM (active). Besides, the GI50 with PC-3, with T47D, in the test on NCI-H522, with U-251, in the test on RPMI-8226 and in the test with SK-MEL-5 was > 100 µM (inactive) each time. Besides, the GI50 in the test with LOX IMVI is > 100 µM (inactive); with SR, > 10 µM (inactive); in the test with MDA-N, > 100 µM (inactive); in the test on EKVX, > 100 µM (inactive); with MDA-MB-231 it was > 100 µM (inactive); in the test with OVCAR-4, > 100 µM (inactive). Further, the GI50 was 76.9 µM (inactive) in the test on SW-620; > 100 µM (inactive) in the test on UACC-62; > 100 µM (inactive) in the test on ACHN; > 100 µM (inactive) in the test with SK-MEL-28; > 100 µM (inactive) with SK-OV-3; > 100 µM (inactive) in the test with NCI/ADR-RES. The GI50 in the test with SNB-19, in the test on HCT-116, in the test on CCRF-CEM, in the test on HCC 2998, in the test with HL-60 and with OVCAR-3 was > 100 µM (inactive) in each case. In addition, the GI50 in the test on UACC-257, with A549, in the test with HT-29, in the test on M14, with MCF7 and in the test on COLO 205 was > 100 µM (inactive) in each case. Also, the GI50 in the test on SF-295, with OVCAR-5, with MDA-MB-435 and in the test with DU-145 was > 100 µM (inactive) throughout.
Regarding `O=P(O)(O)OC1C(OP(=O)(O)O)C(OP(=O)(O)O)C(OP(=O)(O)O)C(OP(=O)(O)O)C1OP(=O)(O)O` (stereo unspecified), the GI50 was > 560 µM (inactive) in the test on EKVX, > 875 µM (inactive) in the test with OVCAR-4, > 923 µM (inactive) in the test with HOP-92 and > 995 µM (inactive) with CCRF-CEM.
